Source: patent US20130171162A1, “COMPOSITIONS AND METHODS FOR THE PREVENTION OF OXIDATIVE DEGRADATION OF PROTEINS” (priority 2008, published 2013)
Entries after “also recorded” stand apart in the source; their conditions may differ. Read-outs that look alike come from different tables or passages of the source.

Assays:
anti-VEGF antibody = conditions: for protection of anti-VEGF antibody against oxidation (basic peaks in IEC): AAPH, free Trp 2 or 10 mg/mL
PTH [1] = assay: Screening stabilizers for PTH oxidized by AAPH, H2O2 plus Fe(II), H2O2; rp-HPLC; assay type: physicochemical
PTH [2] = conditions: AAPH, FIG. 11
PTH [3] = assay: Screening stabilizers for PTH oxidized by AAPH, H2O2 plus Fe(II), H2O2; rp-HPLC; assay type: physicochemical; conditions: for protection of Trp residue in PTH: stress AAPH 1 mM, stabilizer 2 mg/mL; for protection of Trp residue in PTH / protection of PTH against oxidation: 40° C., 6 hours; for protection of PTH against oxidation: stress AAPH
Description: The protein solution was subsequently stressed by the addition of 1 mM of AAPH, and incubated at 40° C. for 6 hours.
The experiments were carried on a Waters HPLC instrument using a C4 (Vydac, 214TP, 5μ, 2.1×250 mm). The solvent A was 0.1% trifluoracetic acid (TFA) in H2O and the solvent B was 0.08% TFA in acetonitrile. The samples were analyzed with a linear gradient from 20% B to 80% B at a flow rate of 0.2 mL/min in 45 min. The column temperature was set at 30° C.

[4] = Anti-VEGF antibody oxidation, IEC chromatogram; conditions: for oxidation / oxidative species in basic region of IEC: H2O2
[5] = stress H2O2 plus Fe(II) (Fenton reaction), 40° C., 6 hours

O=C([O-])CN(CCN(CC(=O)[O-])CC(=O)O)CC(=O)O.[Na+].[Na+] [EDTA, EDTA disodium]
effect on Trp 50 oxidation of anti-VEGF antibody (anti-VEGF antibody; EDTA added as stabilizer): inhibited; also recorded: improved stability

OC[C@H]1O[C@@](CO)(O[C@H]2O[C@H](CO)[C@@H](O)[C@H](O)[C@H]2O)[C@@H](O)[C@@H]1O [Sucrose, sucrose]
protection of PTH against oxidation (PTH [1]; [5]): less effective than mannitol

CSCC[C@H](N)C(=O)O [free methionine, L-Methionine]
Met oxidation of PTH, relative quantification by EIC (PTH [2]): suppressed the Met oxidation significantly
effect on the oxidation of Trp in PTH (Trp[O] peak) (PTH [1]; free Met 2 mg/mL, FIG. 6): no effect
oxidation of Met residues in PTH (Met[O]-PTH peaks) (PTH [1]; free Met 2 mg/mL, FIG. 6): significantly reduced
protection of PTH against oxidation (PTH [1]; stress H2O2, 40° C., 6 hours): protected
protection of PTH against oxidation (PTH [1]; stress H2O2, 40° C., 6 hours, listed as Free Met): neutralized the effect of the oxidants H2O2
protection of PTH against oxidation (PTH [1]; [5]): protected
protection of PTH against oxidation (PTH [1]; stress H2O2 plus Fe(II) (Fenton reaction), 40° C., 6 hours, listed as Free Met): neutralized the effect of the oxidants H2O2

N[C@@H](Cc1c[nH]c2ccccc12)C(=O)O [free tryptophan, L-Tryptophan]
Trp oxidation of PTH, relative quantification by EIC (PTH [2]): suppressed the Trp oxidation significantly
Met[O]-PTH peaks (PTH [1]; free Trp 2 mg/mL, Fenton reaction): much less so
protection of Trp residue in PTH (PTH [1]; stress Fenton reaction, stabilizer 2 mg/mL, 40° C., 6 hours): good protection
protection of PTH against oxidation (PTH [1]; stress H2O2, 40° C., 6 hours): no protection
Met[O]-PTH peaks (PTH [3]; free Trp 2 mg/mL, AAPH stress): prominent
protection of Trp residue in PTH (PTH [3]): good protection
protection of PTH against oxidation (PTH [3]): effective only against the oxidation by AAPH
protection of anti-VEGF antibody against oxidation (basic peaks in IEC) (anti-VEGF antibody): excellent protection
protection of anti-VEGF antibody against oxidation (basic peaks in IEC) (anti-VEGF antibody; listed as Free Trp): effective in mitigating oxidation
protection of anti-VEGF antibody against oxidation (basic peaks in IEC) (anti-VEGF antibody; listed as free Trp): dropped to the baseline
protection of anti-VEGF antibody against oxidation (basic peaks in IEC) (anti-VEGF antibody; listed as tryptophan): effectively blocked the oxidative reaction

OC[C@@H](O)[C@@H](O)[C@H](O)[C@H](O)CO [mannitol, Mannitol]
protection of PTH against oxidation (PTH [1]; stress H2O2, 40° C., 6 hours): not protected by mannitol at all
protection of PTH against oxidation (PTH [1]; [5]): effective; also recorded: complete protection
protection of PTH against oxidation (PTH [3]): not protected by mannitol at all

Cc1ncc(CO)c(CO)c1O [pyridoxine]
protection of Trp residue in PTH (PTH [3]): excellent protection

Cc1c(C)c2c(c(C)c1O)CCC(C)(C(=O)O)O2 (stereo not shown) [trolox, 6-hydroxy-2,5,7,8-tetramethylchroman-2-carboxylic acid]
protection of Trp residue in PTH (PTH [3]): excellent protection

anti-VEGF antibody: humanized anti-VEGF antibody fragment, indicated for the treatment of neovascular (wet) age-related macular degeneration
oxidation / peaks in basic region of IEC ([4]; AAPH): produced additional peaks in the basic region of IEC chromatogram
oxidation / oxidative species in basic region of IEC [4]: did not cause the anti-VEGF antibody oxidation
oxidation / oxidative species in basic region of IEC ([4]; listed as anti-VEGF): no oxidative species in basic region
